These results are taken from ChEMBL document CHEMBL1123975, “2-Phenylpyrroles as conformationally restricted benzamide analogues. A new class of potential antipsychotics. 2” (J Med Chem, 1988).

The term ED50 denotes the midpoint of the dose-response relation. Higher therefore signals a need for a large dose. For orientation: Ki means a dissociation constant, usually derived from enzyme kinetics or from competition with a known ligand. High values mean weaker binding, low ones tighter binding.

A value given as a limit tells only on which side of the number the result lay.

The subject of assay [1] is Rattus norvegicus. Briefly: Suppression of conditioned avoidance behavior in rats after ip administration. In kind it is functional.
Assay [2] has as its system Rattus norvegicus. Briefly: Suppression of conditioned avoidance behavior in rats following p.o. administration. Format: functional. To be noted: po.
Assay [3] addresses D(2) dopamine receptor (Rattus norvegicus, UniProt P61169). As to the kind of experiment: Displacement of [3H]-Spiperone from Dopamine receptor D2 in rat striatum. (In general: Displacement assays read how much labelled ligand stays bound in the presence of the test substance.)
Assay [4] concerns the target T1, Adrenergic receptor alpha-1 (Rattus norvegicus, UniProt P15823+P23944+P43140).
T1 sequence (P15823 whole entry): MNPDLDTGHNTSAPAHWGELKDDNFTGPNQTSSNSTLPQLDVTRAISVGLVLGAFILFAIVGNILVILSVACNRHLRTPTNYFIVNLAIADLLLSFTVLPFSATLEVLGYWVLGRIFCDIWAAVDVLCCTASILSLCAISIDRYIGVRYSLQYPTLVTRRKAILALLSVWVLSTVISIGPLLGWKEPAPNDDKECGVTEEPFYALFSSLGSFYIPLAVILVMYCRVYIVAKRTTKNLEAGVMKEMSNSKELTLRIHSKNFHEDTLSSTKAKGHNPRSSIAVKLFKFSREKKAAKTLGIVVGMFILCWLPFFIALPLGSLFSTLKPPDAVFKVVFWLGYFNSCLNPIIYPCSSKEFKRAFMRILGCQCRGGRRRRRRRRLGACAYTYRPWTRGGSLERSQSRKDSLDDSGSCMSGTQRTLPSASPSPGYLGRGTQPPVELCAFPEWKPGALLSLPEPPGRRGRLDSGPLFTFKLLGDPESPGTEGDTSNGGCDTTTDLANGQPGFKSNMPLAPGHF
T1 sequence (P23944 whole entry): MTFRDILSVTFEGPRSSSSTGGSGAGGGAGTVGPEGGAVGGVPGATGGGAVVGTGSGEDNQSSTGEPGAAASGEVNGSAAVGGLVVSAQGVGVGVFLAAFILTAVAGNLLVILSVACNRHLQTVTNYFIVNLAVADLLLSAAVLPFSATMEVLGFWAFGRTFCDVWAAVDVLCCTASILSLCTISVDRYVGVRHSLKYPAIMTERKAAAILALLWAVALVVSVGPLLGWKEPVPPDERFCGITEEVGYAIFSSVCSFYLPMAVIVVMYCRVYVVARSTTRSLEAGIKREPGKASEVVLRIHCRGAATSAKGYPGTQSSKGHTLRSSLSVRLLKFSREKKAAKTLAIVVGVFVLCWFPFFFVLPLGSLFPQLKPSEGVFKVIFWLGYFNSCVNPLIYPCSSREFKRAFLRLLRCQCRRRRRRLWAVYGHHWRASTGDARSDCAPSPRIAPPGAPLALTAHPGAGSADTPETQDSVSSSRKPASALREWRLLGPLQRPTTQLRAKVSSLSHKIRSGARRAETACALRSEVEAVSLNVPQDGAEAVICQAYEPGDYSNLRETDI
T1 sequence (P43140 whole entry): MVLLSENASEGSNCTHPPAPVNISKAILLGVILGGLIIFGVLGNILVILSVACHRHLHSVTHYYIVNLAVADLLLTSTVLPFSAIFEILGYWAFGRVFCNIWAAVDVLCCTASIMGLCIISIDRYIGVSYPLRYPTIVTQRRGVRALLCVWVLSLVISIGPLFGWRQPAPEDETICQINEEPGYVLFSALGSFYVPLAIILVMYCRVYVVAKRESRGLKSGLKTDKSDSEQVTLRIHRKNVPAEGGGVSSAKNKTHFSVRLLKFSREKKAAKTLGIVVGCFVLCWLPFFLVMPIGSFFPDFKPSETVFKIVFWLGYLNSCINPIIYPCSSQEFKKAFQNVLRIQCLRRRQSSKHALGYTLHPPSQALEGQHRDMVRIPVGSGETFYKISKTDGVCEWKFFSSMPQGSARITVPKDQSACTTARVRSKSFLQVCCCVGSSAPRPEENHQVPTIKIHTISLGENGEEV
Briefly: Potency to displace [3H]- WB-4101 from alpha-1 adrenergic receptor in rat striatum.

The subject of assay [5] is Mus musculus. As to the kind of experiment: Antagonism of apomorphine-induced climbing behavior in mice after ip administration. In kind it is functional.
Assay [6] concerns the target Serotonin 2 (5-HT2) receptor (Rattus norvegicus, UniProt P30994+P08909+P14842). As to the kind of experiment: Potency to displace [3H]- Spiperone from 5-hydroxytryptamine 2 receptor […].
A short description of assay [7]: Activity calculated as Na+ ratio [IC50 (+Na+) / IC50 (-Na+)]. Format: functional.
Assay [8] concerns Rattus norvegicus. As to the kind of experiment: Induction of catalepsy in rats when administered intraperitoneally 4 hr prior to measurement to groups of nine animals. In kind it is functional. The following applies: ip.

Chain of D(2) dopamine receptor (P61169 whole entry): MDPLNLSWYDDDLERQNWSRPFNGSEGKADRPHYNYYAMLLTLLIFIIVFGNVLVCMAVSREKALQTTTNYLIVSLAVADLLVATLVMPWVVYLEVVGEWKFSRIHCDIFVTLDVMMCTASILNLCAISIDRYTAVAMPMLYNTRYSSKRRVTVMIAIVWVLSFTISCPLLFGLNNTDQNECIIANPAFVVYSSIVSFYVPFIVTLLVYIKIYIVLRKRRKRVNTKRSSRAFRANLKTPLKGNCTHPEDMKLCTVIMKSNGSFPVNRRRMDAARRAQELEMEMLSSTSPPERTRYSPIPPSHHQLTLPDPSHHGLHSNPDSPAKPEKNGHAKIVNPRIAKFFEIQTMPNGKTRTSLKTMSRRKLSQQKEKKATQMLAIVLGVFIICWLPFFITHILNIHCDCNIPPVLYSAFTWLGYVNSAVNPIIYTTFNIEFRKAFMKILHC

`COc1ccccc1N1CCN(CCNC(=O)c2ccc(F)cc2)CC1` came in with an ED50 in assay [1] of 0.7 mg/kg.

In the case of `COc1ccccc1N1CCN(Cc2ccc(-c3c(F)cccc3F)[nH]2)CC1`, the ED50 in assay [2] is 30 mg/kg. Besides, the Ki in assay [3] is 1.1 nM.

As for `OCCN1CCN(Cc2ccc(-c3ccc(F)cc3)[nH]2)CC1`, the ED50 in assay [1] is > 100 mg/kg. Moreover, in assay [3], the Ki stood at 31000 nM.

With `COc1ccccc1N1CCN(Cc2ccc(-c3ccc(F)cc3)n2CCO)CC1`, in assay [2], the ED50 was > 100 mg/kg. The inhibitory constant (Ki) in assay [3] came to 52 nM.

In assay [2], `O=C(c1ccc(F)cc1)N1CCN(Cc2ccc(-c3ccc(F)cc3)[nH]2)CC1` showed an ED50 of 34 mg/kg. In assay [3], affinity was put at a Ki of 120 nM.

For the compound `COc1ccccc1-c1ccc(CN2CCN(c3ccccc3OC)CC2)[nH]1`, in assay [1], the ED50 was > 100 mg/kg. In assay [3], the Ki came to 6.5 nM.

Regarding `Fc1ccc(-c2ccc(CN3CCC(c4ccccc4)CC3)[nH]2)cc1`, in assay [1], the 50% effective dose (ED50) is > 100 mg/kg. Further, in assay [3], the Ki came to 11 nM.

In assay [3], `CCS(=O)(=O)c1ccc(OC)c(-c2ccc(CN3CCN(c4ccccc4OC)CC3)[nH]2)c1` registered a Ki of 7 nM.

`CCCn1c(CN2CCN(c3ccccc3OC)CC2)ccc1-c1ccc(F)cc1`: in assay [1], the ED50 was > 50 mg/kg. Further, the Ki in assay [3] worked out at 110 nM.

With `COc1ccccc1N1CCN(Cc2ccc(-c3cccc(Cl)c3)[nH]2)CC1`, the ED50 in assay [2] was > 100 mg/kg. This compound also yielded an inhibition constant Ki in assay [3] of 4.4 nM.

`COc1ccccc1N1CCN(Cc2ccc(-c3ccc(C(C)C)cc3)[nH]2)CC1`: the ED50 in assay [1] is > 100 mg/kg. In assay [3], this compound displayed a Ki of 59 nM.

On to `COc1ccccc1N1CCN(Cc2ccc(-c3ccc(C(F)(F)F)cc3)[nH]2)CC1`, for which the ED50 in assay [2] is 45 mg/kg. In assay [3], this compound returned a Ki of 25 nM.

As for `COc1ccccc1N1CCN(Cc2ccc(-c3ccccc3)n2-c2ccccc2)CC1`, the ED50 in assay [2] is > 100 mg/kg. Besides, affinity in assay [3] was put at a Ki of 160 nM.

In the case of `O=C(CCCN1CCN(c2cccc3ccoc23)CC1)c1ccc(F)cc1`, the Ki in assay [4] was 1.5 nM; in assay [3], 5.1 nM; in assay [6], 8.2 nM. The ED50 in assay [2] stood at 7.6 mg/kg; in assay [1], 5.6 mg/kg; in assay [5], 5 mg/kg. Besides, the Na+ ratio in assay [7] was 1.4.

`Fc1ccc(-c2ccc(CN3CCN(c4ccc(F)cc4)CC3)[nH]2)cc1`: it took a dose of 40 mg/kg to reach the 50% effect level in assay [2] (ED50). In assay [3], this compound displayed a Ki of 16 nM.

Turning to `COc1ccccc1C1CCN(Cc2ccc(-c3ccccc3)[nH]2)CC1`, the 50% effective dose (ED50) came out at 100 mg/kg in assay [2] and 1.7 mg/kg in assay [5]. The same compound gave a Ki in assay [3] of 1 nM.

For the compound `COc1ccccc1N1CCN(Cc2ccc(-c3ccccc3)[nH]2)CC1`, the ED50 in assay [2] came to 13 mg/kg; in assay [1], 1.9 mg/kg; in assay [5] it was 0.4 mg/kg. The compound also showed a Ki in assay [3] of 0.76 nM.

Compound `O=C(c1ccc(F)cc1)C1CCN(Cc2ccc(-c3ccc(F)cc3)[nH]2)CC1` gave an ED50 in assay [2] of 34 mg/kg. The compound further yielded a Ki in assay [3] of 12 nM.

Regarding `Fc1ccc(-c2ccc(CN3CCN(c4cccc5ccoc45)CC3)[nH]2)cc1` [ELOPIPRAZOLE], the results for the Ki in assay [4], in assay [3] and in assay [6] were 220 nM, 0.45 nM and 120 nM, respectively. In addition, the ED50 was 2.5 mg/kg in assay [2], 5.4 mg/kg in assay [1], > 54 mg/kg in assay [8] and 2.3 mg/kg in assay [5]. Further, the Na+ ratio in assay [7] is 2.

With `c1ccc(-c2ccc(CN3CCN(c4cccc5c4OCCCO5)CC3)[nH]2)cc1`, the ED50 stood at 12 mg/kg in assay [2] and 0.2 mg/kg in assay [5]. The compound further gave a Ki in assay [3] of 0.68 nM.

In turn, `COc1ccccc1N1CCN(CCCC(=O)c2ccc(F)cc2)CC1` [FLUANISONE] gave a Ki in assay [3] of 2.4 nM. Further, the Na+ ratio in assay [7] is 1.4.

`COc1ccccc1N1CCN(Cc2ccc(-c3ccc(F)cc3)[nH]2)CC1`: the ED50 in assay [8] is > 23 mg/kg. Also, the affinity in assay [3] corresponds to a Ki of 0.96 nM. In assay [7], the Na+ ratio was 2.3.

With `O=C(NCCN1CCN(c2cccc3ccoc23)CC1)c1ccc(F)cc1`, the results for the Ki in assay [4], in assay [3] and in assay [6] were 9.7 nM, 7.1 nM and 29 nM, respectively. The ED50 is 21 mg/kg in assay [2], 2.7 mg/kg in assay [1], > 30 mg/kg in assay [8] and 1.8 mg/kg in assay [5]. The Na+ ratio in assay [7] is 2.5.

Compound `Fc1ccc(-c2ccc(CN3CCN(c4cccc(C(F)(F)F)c4)CC3)[nH]2)cc1` gave an ED50 in assay [2] of 21 mg/kg. The affinity in assay [3] corresponds to a Ki of 19 nM.

The compound `COc1ccccc1N1CCN(Cc2ccc(-c3ccc(F)cc3)n2C)CC1` came in with a Ki in assay [3] of 20 nM.
